Drawing on patent US6756382B2, “Amide substituted imidazoquinolines” (3M Innovative Properties Company, priority 1999, dated 2004), this text covers minimal effective concentration and melting point for 19 compounds.

In one data set the test system is interferon (α). The data set can be described thus: Cytokine induction in human cells: interferon secreted by PBMCs, ELISA. It is filed as cell-based. As to conditions: PBMC, incubated 18 to 24 hours, interferon determined by ELISA, read-out: Lowest Effective Concentration (μM) Interferon. The method in brief:
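Human donor PBMCs at 1.5-2×10^6 cells/mL final in RPMI with 10% FBS, exposed to serially diluted compound (≤1% DMSO) for 18–24 h at 37 °C, 5% CO2. Supernatant interferon (α) measured by ELISA; value is lowest concentration inducing interferon.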
A general note: ELISA stands for enzyme-linked immunosorbent assay.

The subject of data set [1] is tumor necrosis factor (α). Description: Cytokine induction in human cells: tumor necrosis factor (α) secreted by PBMCs, ELISA. It counts as cell-based. As to conditions: PBMC, incubated 18 to 24 hours, TNF determined by ELISA, read-out: Lowest Effective Concentration (μM) Tumor Necrosis Factor. The method in brief: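 Human donor PBMCs at final 1.5-2×10^6 cells/mL in RPMI with 10% FBS incubated 18 to 24 h at 37° C. with serially diluted compound, DMSO at most 1% final. Supernatant TNF-α measured by ELISA; value is the lowest concentration inducing TNF.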

Usually melting point stands for the temperature, or range, at which the solid turns liquid. Take `CCCCc1nc2c(N)nc3ccccc3c2n1CCCCNC(=O)CCCCC1SCC2NC(=O)NC21` (stereo not drawn) [Example 24, N^1-[4-(4-Amino-2-butyl-1H-imidazo[4,5-c]quinolin-1-yl)butyl]-5-(2-oxoperhydrothieno[3,4-d]imidazol-4-yl)pentanamide]: the melting point fell in the range of 214 to 215 °C. In addition, the minimal effective concentration with interferon (α) turned out to be 0.12 µM. Also, the minimal effective concentration in data set [1] was 3.33 µM.

`Nc1nc2ccccc2c2c1ncn2CCCCNC(=O)CCCCC1SCC2NC(=O)NC21` (stereo not drawn) [Example 25, N^1-[4-(4-Amino-1H-imidazo[4,5-c]quinolin-1-yl)butyl]-5-(2-oxoperhydrothieno[3,4-d]imidazol-4-yl)pentanamide] returned a melting point of 104 to 106 °C. Moreover, the minimal effective concentration in the data set on interferon (α) came to 3.33 µM. Moreover, the minimal effective concentration in data set [1] is above 30 µM.

`CCCCc1nc2c(N)nc3ccccc3c2n1CCNC(=O)CCCCC1SCC2NC(=N)NC21` (stereo not drawn) [Example 26, N^1-[2-(4-Amino-2-butyl-1H-imidazo[4,5-c]quinolin-1-yl)ethyl]-5-(2-iminoperhydrothieno[3,4-d]imidazol-4-yl)pentanamide]: the melting point fell in the range of 95 to 96 °C. The minimal effective concentration in the data set with interferon (α) turned out to be 0.37 µM. Moreover, in data set [1], the minimal effective concentration stood at 10 µM.

`Nc1nc2ccccc2c2c1ncn2CCNC(=O)CCCCC1SCC2NC(=O)NC21` (stereo not drawn) [Example 27, N^1-[2-(4-Amino-1H-imidazo[4,5-c]quinolin-1-yl)ethyl]-5-(2-oxoperhydrothieno[3,4-d]imidazol-4-yl)pentanamide]: the melting point is 169 °C. Also, in the data set with interferon (α), the minimal effective concentration was above 30 µM. For the same compound, in data set [1], the minimal effective concentration was above 30 µM.

The compound `CCCCc1nc2c(N)nc3ccccc3c2n1CCNC(=O)CCCCC1SCC2NC(=O)NC21` (stereo not drawn) [Example 28, N^1-[2-(4-Amino-2-butyl-1H-imidazo[4,5-c]quinolin-1-yl)ethyl]-5-(2-oxoperhydrothieno[3,4-d]imidazol-4-yl)pentanamide] had a melting point of 124 to 126 °C. The minimal effective concentration with interferon (α) is 0.12 µM. The minimal effective concentration in data set [1] is above 30 µM.

As to `CCOc1ccc2ccccc2c1C(=O)NCCCCn1cnc2c(N)nc3ccccc3c21` [Example 31, N^1-[4-(4-Amino-1H-imidazo[4,5-c]quinolin-1-yl)butyl]-2-ethoxy-1-naphthamide], the melting point was 219 °C (dec.). Also, the minimal effective concentration in the data set on interferon (α) came to 1.11 µM. The minimal effective concentration in data set [1] is above 30 µM.

`N#Cc1ccc(C(=O)NCCCCn2cnc3c(N)nc4ccccc4c32)cc1` [Example 32, N^1-[4-(4-Amino-1H-imidazo[4,5-c]quinolin-1-yl)butyl]-4-cyanobenzamide] gave a melting point of 222.8 to 225.3 °C. Besides, the minimal effective concentration in the data set with interferon (α) was determined as 3.33 µM. Further, the minimal effective concentration in data set [1] was above 30 µM.

Turning to `N#Cc1cccc(C(=O)NCCCCn2cnc3c(N)nc4ccccc4c32)c1` [Example 33, N^1-[4-(4-Amino-1H-imidazo[4,5-c]quinolin-1-yl)butyl]-3-cyanobenzamide], the melting point was 200 to 201 °C (dec.). The minimal effective concentration in the data set with interferon (α) was determined as 0.37 µM. In addition, the minimal effective concentration in data set [1] was above 30 µM.

Regarding `Nc1nc2ccccc2c2c1ncn2CCCCNC(=O)c1ccc(-c2ccccc2)cc1` [Example 34, N^1-[4-(4-Amino-1H-imidazo[4,5-c]quinolin-1-yl)butyl]-4-phenylbenzamide], the melting point was 215.4 °C (dec.). Also, in the data set on interferon (α), the minimal effective concentration is above 30 µM. Further, the minimal effective concentration in data set [1] was 3.33 µM.

With `Nc1nc2ccccc2c2c1ncn2CCCCNC(=O)COc1ccccc1` [Example 35, N^1-[4-(4-Amino-1H-imidazo[4,5-c]quinolin-1-yl)butyl]-2-phenoxyacetamide], the melting point was 61.5 °C (dec.). Besides, in the data set on interferon (α), the minimal effective concentration was determined as 1.11 µM. Moreover, the minimal effective concentration in data set [1] was above 30 µM.

The compound `CCCCC(CC)C(=O)NCCCCn1cnc2c(N)nc3ccccc3c21` (stereo not drawn) [Example 36, N^1-[4-(4-Amino-1H-imidazo[4,5-c]quinolin-1-yl)butyl]-2-ethylhexanamide] had a melting point of 163 to 164 °C. Further, the minimal effective concentration in the data set with interferon (α) came to 1.11 µM. Also, the minimal effective concentration in data set [1] stood at 10 µM.

Compound `Nc1nc2ccccc2c2c1ncn2CCCCNC(=O)c1cccc(Oc2ccccc2)c1` [Example 39, N^1-[4-(4-Amino-1H-imidazo[4,5-c]quinolin-1-yl)butyl]-3-phenoxybenzamide] registered a melting point of 105 to 107 °C. Besides, in the data set with interferon (α), the minimal effective concentration is 3.33 µM. Also, in data set [1], the minimal effective concentration is above 30 µM.

`CC(Oc1ccccc1)C(=O)NCCCCn1cnc2c(N)nc3ccccc3c21` (stereo not drawn) [Example 41, N^1-[4-(4-Amino-1H-imidazo[4,5-c]quinolin-1-yl)butyl]-2-phenoxypropanamide] displayed a melting point of 85 to 87.5 °C. Also, the minimal effective concentration with interferon (α) stood at 1.11 µM. Also, the minimal effective concentration in data set [1] is above 30 µM.

In the case of `Nc1nc2ccccc2c2c1ncn2CCCCNC(=O)c1ccc2ccccc2c1` [Example 43, N^2-[4-(4-Amino-1H-imidazo[4,5-c]quinolin-1-yl)butyl]-2-naphthamide], the melting point was 257 °C (dec.). In addition, the minimal effective concentration in the data set with interferon (α) came to 0.12 µM. Besides, in data set [1], the minimal effective concentration is above 30 µM.

`COc1ccc(C(=O)NCCCCn2cnc3c(N)nc4ccccc4c32)c(OC)n1` [Example 44, N^3-[4-(4-Amino-1H-imidazo[4,5-c]quinolin-1-yl)butyl]-2,6-dimethoxynicotnamide] displayed a melting point of 175 to 177 °C. For the same compound, in the data set with interferon (α), the minimal effective concentration was found to be 1.11 µM. In addition, in data set [1], the minimal effective concentration is above 30 µM.

`Nc1nc2ccccc2c2c1ncn2CCCCNC(=O)c1cccc2cccnc12` [Example 45, N^8-[4-(4-Amino-1H-imidazo[4,5-c]quinolin-1-yl)butyl]-8-quinolinecarboxamide]: the melting point was 91 to 93 °C. In the data set on interferon (α), the minimal effective concentration was determined as 3.33 µM. For the same compound, the minimal effective concentration in data set [1] was above 30 µM.

The compound `CC(C)Cc1ccc(C(C)C(=O)NCCCCn2cnc3c(N)nc4ccccc4c32)cc1` (stereo not drawn) [Example 46, N^1-[4-(4-Amino-1 H-imidazo[4,5-c]quinolin-1-yl)butyl]-2-(4-isobutylphenyl)propanamide] showed a melting point of 172 to 173 °C. Besides, in the data set with interferon (α), the minimal effective concentration is above 30 µM. In addition, the minimal effective concentration in data set [1] was 10 µM.

`COCCc1nc2c(N)nc3ccccc3c2n1CCCCNC(=O)c1cc2ccccc2cn1` [Example 181, N-{4-[4-amino-2-(2-methoxyethyl)-1H-imidazo[4,5-c]quinolin-1-yl]butyl}isoquinoline-3-carboxamide] yielded a melting point of 199 to 200 °C. Moreover, in the data set with interferon (α), the minimal effective concentration is 0.01 µM. Further, the minimal effective concentration in data set [1] stood at 1.11 µM.

`COCCc1nc2c(N)nc3ccccc3c2n1CCCCNC(=O)c1cnc2ccccc2c1` [Example 182, N-{4-[4-amino-2-(2-methoxyethyl)-1H-imidazo[4,5-c]quinolin-1-yl]butyl}quinoline-3-carboxamide] gave a melting point of 114 to 116 °C. Also, the minimal effective concentration in the data set with interferon (α) came out at 0.01 µM. In addition, the minimal effective concentration in data set [1] was determined as 0.01 µM.
